In this test the test system is D54 ERlucT glycosylation luciferase reporter, luminescence, 24 h. As to the kind of experiment: blockers of NLG process in reporter cells – D54 ERlucT cells, luminescence, cherry-picks, dose response (AID 624491).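 Also: signal gain reflects blocked N-linked glycosylation of a luciferase reporter; actives raise luciferase signal so AC26 marks activators of the reporter.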

As to `CC(=O)Nc1cccc(-c2ccnc3c2CC(C(=O)Nc2ccc4c(c2)OCO4)O3)c1` (stereo not drawn), the AC26 is 4550 nM. The figure for `c1ccc(CNc2nc(-c3ccccc3)nc3ccccc23)cc1` is 1570 nM.

Regarding `Cn1cccc1/C=C1\SC(=Nc2ccccc2)NC1=O`, the AC26 is 1150 nM. The figure for `Cn1nc(C(F)(F)F)c(/C=N/OC(=O)c2ccccc2Cl)c1SCc1ccc(Cl)cc1` is 3940 nM; for `CCN(CC)S(=O)(=O)c1cccc(C(=O)N/N=C/c2ccc([N+](=O)[O-])o2)c1` it is 2340 nM. For `Nc1c(N(CCC2=CCCCC2)C(=O)COc2ccc(F)cc2Cl)c(=O)[nH]c(=O)n1Cc1ccccc1` the value was 1070 nM; for `CCOc1ccc(/C=N/NC(=O)c2cc3c(OC)cccc3[nH]2)cc1`, 3800 nM; for `Cc1nc2ccccc2c2oc(C(=O)NCCCN3CC(C)CC(C)C3)cc12` (stereo not drawn), 5380 nM. The figure for `COC(=O)c1cc(=O)n(-c2ccccc2)c(=Nc2ccccc2)s1` is 10800 nM. For the molecule `CC(=O)Nc1ccc(-c2ccnc3c2CC(C(=O)NCc2cccc(Cl)c2)O3)cc1` (stereo not drawn), the AC26 is 540 nM.

In the case of `COc1cc2cnc(-c3ccccc3)cc2cc1OC`, the AC26 is 2360 nM. For `Cc1ccc(C(=O)c2cc([N+](=O)[O-])ccc2N2CCOCC2)cc1C` the value was 168 nM; for `CCOC(=O)c1ccccc1NS(=O)(=O)c1ccc(OC)cc1`, 16000 nM. For the molecule `CC(C)n1c(/C=C/[C@H](O)C[C@H](O)CC(=O)O)c(-c2ccc(F)cc2)c2ccccc21`, the AC26 is 77.8 nM. The figure for `CCn1c(=O)c2cc(C(=O)NCCCOC)sc2c2ccccc21` is 2460 nM.

As to `COc1cc(-c2[nH]ncc2CN2CCSCC2)cc(OC)c1OC`, the AC26 was 4790 nM. On to `Cn1c(C(=O)NC2CCCCCC2)cc2c(=O)n(C)c3ccccc3c21`, for which the AC26 was 4470 nM.

Take `Cc1ccc(NC(=O)c2cc(S(=O)(=O)N(C)C)ccc2N2CCCC2)cc1F`: the AC26 is 109 nM. The figure for `COc1cc2c(cc1OC)C(c1cccs1)N(C(=O)c1ccncc1)CC2` (stereo not drawn) is 3030 nM. Take `CCN(CC)S(=O)(=O)c1ccc(N2CCOCC2)c(NC(=O)c2[nH]c(C)c(C(C)=O)c2C)c1`: the AC26 was 1860 nM. For `N#Cc1c(NCCN)nc(-c2ccco2)c2c1CCCC2` the value was 1730 nM; for `CCOc1ccc2cc(/C=C/C(=O)c3ccco3)c(Cl)nc2c1`, 3060 nM. For `Cc1cc(=O)n2c3c(c4c(cc13)c(CN(C)C)cc(=O)n4C)OC2` the value was 3030 nM. For `COc1cc2ccccc2cc1C(=O)N/N=C/c1cccs1` the value was 232 nM. In the case of `COc1cc(C(=O)N/N=C(\C)c2ccc3c(c2)OCO3)cc(OC)c1OC`, the AC26 is 1260 nM. For `CCOC(=O)Nc1nc2ccc(Cn3cccc3)cc2[nH]1` the value was 674 nM; for `Cc1onc(C(=O)Nc2cccc(C(F)(F)F)c2)c1[N+](=O)[O-]`, 2720 nM; for `COC(=O)c1cn(C(=O)c2ccc(OC)cc2)c2ccccc12`, 730 nM. Take `CCN(CC)CCn1c2ccccc2c2nc3ccccc3nc21`: the AC26 was 1950 nM.

For `CC[C@H](C)[C@H](NC(=O)c1ccc(Cl)cc1)C(=O)OCC(=O)c1ccc2c(c1)NC(=O)CO2`, the AC26 was 6470 nM. For `COc1cc(-c2cnc3c(NC(C)=O)cc(-c4ccccc4CN(C)C)cn23)cc(OC)c1OC` the value was 2650 nM; for `COc1cccc2nc3c(C(=O)NCCN(C)C)cccc3cc12`, 164 nM; for `Cc1ccc(C=Nc2ccccc2C(N)=O)cc1`, 2520 nM. The figure for `CN(C)CCCNc1cc(-c2ccccc2)nc2cc(-c3cccc(F)c3)nn12` is 5210 nM. For `O=C(CSCc1ccco1)Nc1cc(C(F)(F)F)ccc1N1CCOCC1` the value was 2080 nM; for `N#CC1=C(N)Oc2c(c(=O)sc3ccccc23)C1c1cccnc1` (stereo not drawn), 2860 nM. Regarding `Cc1cc(NC(=O)NC(=O)c2ccccc2NC(=O)CN)ccc1Oc1ncc(Br)cn1`, the AC26 was 11000 nM.

Turning to `CNC(=O)c1cccn(Cc2ccc(C(F)(F)F)cc2)c1=O`, the AC26 was 3370 nM. The figure for `COC(=O)c1ccc(/C=C/C(=O)c2ccc(OC)c(OC)c2)cc1` is 4100 nM; for `O=C(NCCCN1CCOCC1)c1cc(-c2cccs2)on1` it is 3670 nM. The figure for `c1ccc2c(c1)c1c(c3ccccc32)CN2CCCC2C1` (stereo not drawn) is 2700 nM; for `CCN(CC)CCNc1ccc(C)c2sc3ccc(O)cc3c(=O)c12` it is 7.74 nM. For `COc1ccc(Nc2cc(C)nc3ccc(OC)cc23)cc1`, the AC26 was 1830 nM. The figure for `C[C@@H]1[C@@H](Sc2ccccc2)CC(=O)O[C@@H]1c1ccc(-c2ccccc2)cc1` is 920 nM; for `Cc1ccc(-c2nc3ncccc3o2)cc1NC(=O)c1ccc([N+](=O)[O-])o1` it is 4010 nM.

On to `CC(=O)Nc1cccc(-c2ccnc3c2CC(C)(C(=O)NCC2CC2)O3)c1` (stereo not drawn), for which the AC26 is 5110 nM. The figure for `CSc1ncnc2c1ncn2CCCN[C@H](C)c1cccc2ccccc12` is 679 nM; for `COc1ccc(-n2c(C)cc(C(=O)CCl)c2C)cc1` it is 3980 nM; for `NC(=O)CC(NC(=O)Cc1ccc(Cl)cc1)c1ccc(NC2CCCC2)c([N+](=O)[O-])c1` (stereo not drawn) it is 1840 nM. The figure for `CC(NC(=O)c1ccc2ccccc2n1)c1ccc(S(N)(=O)=O)cc1` (stereo not drawn) is 4020 nM; for `CCc1ccc(/C=N/NC(=O)c2nnn(-c3nonc3N)c2C(C)C)cc1` it is 6420 nM; for `O=c1[nH]c(CSc2ncnc3sc(-c4ccccc4)cc23)nc2ccccc12` it is 4470 nM.

Take `O=c1[nH]c(O)c(/C=C2/C=CC(c3cc(Cl)ccc3Cl)=N2)c(=O)[nH]1`: the AC26 is 2610 nM. The figure for `O=C(C=Cc1cccc(O)c1)c1ccccc1O` is 3290 nM; for `Cc1nc2c3cc(F)ccc3n(Cc3ccc(F)cc3)c2s1` it is 11500 nM; for `O=C(/C=C/c1ccccc1)c1ccccc1` it is 6780 nM. Take `COc1ccccc1N1CCN(C(=O)c2[nH]c(C(F)(F)F)nc2-c2ccccc2)CC1`: the AC26 was 2770 nM. Regarding `COc1ccc(OC)c(NS(=O)(=O)c2ccc(SC)cc2)c1`, the AC26 is 7410 nM. For `O=C(NC(=C(Cl)Cl)S(=O)(=O)c1ccc(Cl)cc1)c1ccccc1` the value was 594 nM. The figure for `O=C(Nc1ccccc1O)c1ccc(NS(=O)(=O)c2cccc3cccnc23)cc1` is 3930 nM; for `CN1CCN(C(c2ccc(Cl)cc2)c2cc(Cl)c3cccnc3c2O)CC1` (stereo not drawn) it is 4040 nM; for `CC1(C(=O)NCc2ccco2)Cc2c(-c3cccc(C(N)=O)c3)ccnc2O1` (stereo not drawn) it is 1450 nM. The figure for `Cc1ccc(C(=O)N2C(CC(=O)Nc3ccc(Cl)cc3)C(=O)NC3CCCCC32)cc1` (stereo not drawn) is 12600 nM. In the case of `O=C(c1cccs1)N1CCC(c2nc3c(nnn3Cc3cccc(Cl)c3)c(=O)[nH]2)CC1`, the AC26 is 217 nM. The figure for `COc1ccc2cc(C)c3nnc(SCC(=O)Nc4nc(-c5ccc(F)cc5)cs4)n3c2c1` is 2360 nM. For `COc1ccc(OC(=O)N2C/C(=C/c3ccccc3)C(=O)/C(=C\c3ccccc3)C2)cc1` the value was 299 nM; for `O=C(/C=C/c1cccc([N+](=O)[O-])c1)c1ccc2c(c1)OCCO2`, 3330 nM. On to `COCCN(C(=O)CCl)C(C(=O)NC1CCCCC1)c1ccccc1C` (stereo not drawn), for which the AC26 was 3340 nM.

Turning to `COCCNC(=O)c1cc(-c2ccccc2OC)on1`, the AC26 was 9620 nM. The figure for `CCN(CC)CCN1C(=O)c2cccc3cc(N)cc(c23)C1=O` is 1140 nM. The figure for `CC(=O)N1N=C(c2ccc(NS(=O)(=O)c3ccccc3)cc2)CC1c1ccco1` (stereo not drawn) is 912 nM; for `CCN(CC)CCNc1ccc(CO)c2oc3cc(Cl)ccc3c(=O)c12` it is 2820 nM; for `O=C(Nc1ccc(S(=O)(=O)N2CCOCC2)cc1)c1cc(-c2cc(Cl)ccc2O)n[nH]1` it is 1260 nM. The figure for `Cc1cc(C)c2c(N)c3ccccc3nc2n1` is 762 nM; for `O=C(N/N=C/c1ccccc1)c1sccc1OCc1ccc(F)cc1` it is 2600 nM; for `COc1ccc2noc3c2c1C(=O)c1ccccc1-3` it is 441 nM.

With `Cc1ccc(/C=N/NC(=O)CCn2nc(C)cc2C)c(C)c1`, the AC26 is 5510 nM. For `CC(=O)Nc1cccc(-c2ccnc3c2CC(C)(C(=O)Nc2cccc(C(C)=O)c2)O3)c1` (stereo not drawn) the value was 9480 nM; for `Cn1cnc([N+](=O)[O-])c1Sc1nc2ccccc2[nH]1`, 797 nM; for `CCC(CC)Nc1ccc(C(CC(N)=O)NC(=O)Cc2ccc(Br)cc2)cc1[N+](=O)[O-]` (stereo not drawn), 4130 nM. As for `Clc1cccc(N2Cc3cc(-c4ccccc4)ccc3-n3nncc3C2)c1`, the AC26 was 3580 nM.

Regarding `CCn1c(=O)c([N+](=O)[O-])c(Cl)c2ccccc21`, the AC26 was 1390 nM. For `COc1cc(-c2nc(-c3ccccc3)c(-c3cccs3)[nH]2)cc(OC)c1OC` the value was 3280 nM; for `Cc1cccc2sc(NC(=O)c3cc(S(=O)(=O)N(C)C)ccc3N3CCCC3)nc12`, 157 nM; for `COc1ccc(OC)c(Nc2ncnc3c2cnn3-c2cccc(C)c2)c1`, 3240 nM. For `COc1ccc(Sc2nnc(Cc3ccccc3)c3ccccc23)cc1` the value was 2880 nM.

Consider `Cc1[nH][nH]c(=O)c1C(c1ccc(-c2ccc(Cl)c(Cl)c2)o1)c1c(C)[nH][nH]c1=O`, for which the AC26 is 917 nM. The figure for `COc1ccc(NC(=O)C2(C)Cc3c(-c4cccc(C(N)=O)c4)ccnc3O2)cn1` (stereo not drawn) is 10700 nM; for `CC(=O)c1cccc(Nc2cc(C)nc3c(C)cc(C)cc23)c1` it is 4210 nM; for `CCn1c2ccccc2c2cc(NC(=O)COC(=O)Cc3cn4ccsc4n3)ccc21` it is 1790 nM. For `COc1cc(-c2coc3c(C(=O)NCc4ccc(OC)c(OC)c4)cccc23)ccc1O` the value was 1220 nM; for `CC(=O)c1cccc(-c2ccnc3c2CC(C(=O)NCC2CCOCC2)O3)c1` (stereo not drawn), 2070 nM; for `Cc1ccc(-c2nc(N(C)C3CCN(C)CC3)c3ccccc3n2)cc1`, 4000 nM. For `COc1cc2c3c(cccc3c1)C(=O)N(CCN1CCCC1)C2=O` the value was 200 nM; for `O=C(C=Cc1ccccn1)c1ccccc1O`, 1250 nM; for `CC(=O)C1=C(O)C(=O)N(c2ccc(Br)cn2)C1c1ccc(Br)cc1` (stereo not drawn), 491 nM. Regarding `Cc1ccc2nc(-c3ccccc3)cc(C(=O)N3CC(C)OC(C)C3)c2c1` (stereo not drawn), the AC26 was 2450 nM. The figure for `CCCCOc1ccccc1C1CC(=O)NC2=C1C(=O)CCC2` (stereo not drawn) is 1320 nM.

The values are drawn from PubChem BioAssay AID624491 (Broad Institute, 2012).
